# Like-named read-outs stand apart in the source and are kept apart here.
# Key:
# [1] = system: Dengue virus type 2 strain New Guinea C (NG-C) or Dengue virus type 4 strain H241; assay: Dengue virus cell-based assay (Huh-7.5 cells, CellTiter-Glo)
# Method: The Dengue virus type 2 strain New Guinea C (NG-C) and the Dengue virus type 4 strain H241 were purchased from ATCC (Manassas, Va.; item numbers VR-1584 and VR-1490, respectively). 24 h prior to dosing, Huh-7.5 cells were plated in 96 well plates at a density of 1.5×10^5/mL in DMEM medium supplemented with 10% fetal bovine serum, 1% HEPES buffer, 1% Penicillin/Streptomycin and 1% non-essential amino acids (all Mediatech, Manassas, Va.). At the day of infection, serially diluted compounds were added to cells and incubated for 4 h. After the end of the 4 h pre-incubation period, cells were infected with either Dengue virus type 2 NG-C or Dengue virus type 4H241. The virus inoculum was selected to cause 80-90% cytopathic effect in five to six days. Infected cells were incubated for five (NG-C) to six (H241) days at 37° C., 5% CO2. To develop the assay, 100 μL media was replaced with 100 μl CellTiter-Glo® reagent (Promega, Madison, Wis.), and incubated for 10 mins at RT. Luminescence was measured on a Victor X3 multi-label plate reader. Potential compound cytotoxicity of was determined using uninfected parallel cultures.
# Human rhinovirus 1B = assay: Picornavirus assay (CPE, CellTiter-Glo, HeLa-OHIO cells); type: cell-based
# subgenomic HCV replicon = assay: HCV replicon assay (Huh-7, luciferase reporter); type: cell-based; settings: Hepatitis C virus, Huh-7, 72 h
# [2] = molecular target: human rhinovirus 16 polymerase (HRV16pol) (Human rhinovirus 16, UniProt Q82122); assay: biochemical; settings: HRV16pol, 2.5 h at 30° C., mean of several independent experiments; read-out: IC50
# [3] = molecular target: dengue virus NS5 polymerase domain (DENVpol, serotype 2, New Guinea C strain) (Dengue virus type 2, UniProt P14340); assay: Dengue virus polymerase inhibition assay; type: biochemical; settings: DENVpol serotype 2, 3 hours at 30° C., mean of several independent experiments
# Method: The enzyme activity of dengue virus NS5 polymerase domain (DENVpol, serotype 2, New Guinea C strain) was measured as an incorporation of tritiated NMP into acid-insoluble RNA products. DENVpol assay reactions contained 100 nM recombinant enzyme, 50 nM heteropolymeric RNA, about 0.5 μCi tritiated NTP, 0.33 μM of competing cold NTP, 40 mM HEPES (pH 7.5), 3 mM dithiothreitol, and 2 mM MgCl2. Standard reactions were incubated for 3 hours at 30° C., in the presence of increasing concentration of inhibitor. At the end of the reaction, RNA was precipitated with 10% TCA, and acid-insoluble RNA products were filtered on a size exclusion 96-well plate. After washing of the plate, scintillation liquid was added and radiolabeled RNA products were detected according to standard procedures with a Trilux Topcount scintillation counter. The compound concentration at which the enzyme-catalyzed rate was reduced by 50% (IC50) was calculated by fitting the data to a non-linear regression (sigmoidal).
# [4] = Cytotoxicity in HeLa OHIO host cell line; type: cell-based; settings: human, HeLa-OHIO cells, n>5
# HRV-89 = assay: Human rhinovirus strain panel assay, HRV-89; type: cell-based; settings: Rhinovirus A, HRV89
# NS5B570-Con1 (Delta-21) = NS5B570-Con1 (Delta-21) (Hepatitis C virus genotype 1b, UniProt Q9WMX2); assay: biochemical; design: species or system HCV
# [5] = Rhinovirus A, 96 h, Human rhinovirus 1B, HeLa-OHIO cells, 4 d at 33° C., read-out: EC50
# [6] = Huh-7.5 cells, antiviral activity, dengue type (2 NG-C or 4 H241) not given, read-out: IC50
# [7] = Human rhinovirus 1B, HeLa-OHIO cells, 4 d at 33° C., read-out: EC50
# human rhinovirus 16 polymerase (HRV16pol), sequence (Q82122 1694-2153 limits assumed): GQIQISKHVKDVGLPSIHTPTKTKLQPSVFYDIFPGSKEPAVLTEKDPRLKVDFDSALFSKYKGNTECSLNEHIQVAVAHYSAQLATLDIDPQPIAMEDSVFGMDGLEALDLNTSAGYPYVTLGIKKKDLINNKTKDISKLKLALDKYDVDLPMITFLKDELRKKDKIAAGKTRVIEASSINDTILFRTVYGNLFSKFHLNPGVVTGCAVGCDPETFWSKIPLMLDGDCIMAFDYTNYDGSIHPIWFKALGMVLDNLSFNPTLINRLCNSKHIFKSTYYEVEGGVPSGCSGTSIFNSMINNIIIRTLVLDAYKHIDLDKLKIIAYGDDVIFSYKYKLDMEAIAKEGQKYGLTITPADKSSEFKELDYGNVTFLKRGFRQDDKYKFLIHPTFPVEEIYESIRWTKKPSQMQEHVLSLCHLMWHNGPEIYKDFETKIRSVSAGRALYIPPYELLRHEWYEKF
Structure (SMILES),"IC50 ([1]; Dengue virus, Huh7.5)",IC50 [2],IC50 [3],other results
CC(C)OC(=O)OCOP(=O)(OCOC(=O)OC(C)C)OC[C@@]1(F)O[C@@H](n2ccc(=O)[nH]c2=O)[C@](C)(O)[C@@H]1O [Compound 9],< 10 µM,,,EC50 (Human rhinovirus 1B; [5]): < 1 µM
CCOc1nc(N)nc2c1ncn2[C@@H]1O[C@](F)(COP(=O)(N[C@@H](C)C(=O)OC2CCCCC2)Oc2ccccc2)[C@@H](O)[C@@]1(C)O (stereo partly drawn) [Compound 10],< 1 µM,,,"EC50 (Human rhinovirus 1B; Rhinovirus A, 96 h): < 1 µM"
C#C[C@]1(O)[C@H](n2ccc(=O)[nH]c2=O)O[C@](F)(COP(=O)(N[C@@H](C)C(=O)OC2CCCCC2)Oc2ccccc2)[C@H]1O (stereo partly drawn) [Compound 13],< 1 µM,,,"EC50 (Human rhinovirus 1B; Rhinovirus A, 96 h): < 1 µM"
C[C@H](NP(=O)(OC[C@@]1(F)O[C@@H](n2cnc3c(=O)[nH]c(N)nc32)[C@](C)(O)[C@@H]1F)Oc1ccccc1)C(=O)OC1CCCCC1 (stereo partly drawn) [Compound 14],< 10 µM,,,"EC50 (subgenomic HCV replicon): 10 to 100 µM; EC50 (Human rhinovirus 1B; Rhinovirus A, 96 h): 10 to 100 µM"
CCOc1nc(N)nc2c1ncn2[C@@H]1O[C@](F)(COP(=O)(N[C@@H](C)C(=O)OC2CCCCC2)Oc2ccccc2)[C@@H](F)[C@@]1(C)O (stereo partly drawn) [Compound 16],< 10 µM,,,"EC50 (subgenomic HCV replicon): 1 to 10 µM; EC50 (Human rhinovirus 1B; Rhinovirus A, 96 h): 1 to 10 µM"
CCOc1nc(N)nc2c1ncn2[C@@H]1O[C@](F)(CO[P@](=O)(N[C@@H](C)C(=O)OC2CCCCC2)Oc2ccccc2)[C@@H](O)[C@@]1(C)F [Compound 25],< 1 µM,,,"EC50 (Human rhinovirus 1B; Rhinovirus A, 96 h): < 1 µM"
CCOc1nc(N)nc2c1ncn2[C@@H]1O[C@](F)(CO[P@@](=O)(N[C@@H](C)C(=O)OC2CCCCC2)Oc2ccccc2)[C@@H](O)[C@@]1(C)F [Compound 26],< 1 µM,,,"EC50 (Human rhinovirus 1B; Rhinovirus A, 96 h): 1 to 10 µM"
C#C[C@]1(O)[C@H](n2cnc3c(OCC)nc(N)nc32)O[C@](F)(CO[P@](=O)(N[C@@H](C)C(=O)OC2CCCCC2)Oc2ccccc2)[C@H]1O [Compound 27],,,,"IC50 [1, 6]: < 10 µM; EC50 (Human rhinovirus 1B; [7]): < 1 µM"
C#C[C@]1(O)[C@H](n2cnc3c(OCC)nc(N)nc32)O[C@](F)(CO[P@@](=O)(N[C@@H](C)C(=O)OC2CCCCC2)Oc2ccccc2)[C@H]1O [Compound 28],,,,"IC50 [1, 6]: < 10 µM; EC50 (Human rhinovirus 1B; [7]): < 1 µM"
CC(C)OC(=O)OCOP(=O)(OCOC(=O)OC(C)C)OC[C@@]1(F)O[C@@H](n2cnc3c(=O)[nH]c(N)nc32)[C@](C)(O)[C@@H]1O [Compound 46],< 100 µM,,,EC50 (Human rhinovirus 1B; [5]): < 1 µM
C#C[C@]1(O)[C@H](n2ccc(=O)[nH]c2=O)O[C@](F)(COP(=O)(OCOC(=O)OC(C)C)OCOC(=O)OC(C)C)[C@H]1O [Compound 53],< 10 µM,,,EC50 (Human rhinovirus 1B; [5]): < 1 µM
CCOc1nc(N)nc2c1ncn2[C@@H]1O[C@](F)(COP(=O)(OCOC(=O)OC(C)C)OCOC(=O)OC(C)C)[C@@H](O)[C@@]1(C)O [Compound 55],< 1 µM,,,EC50 (Human rhinovirus 1B; [5]): < 1 µM
CCOc1nc(N)nc2c1ncn2[C@@H]1O[C@]2(F)CO[P@](=O)(OC(C)C)O[C@H]2[C@@]1(C)F [Compound 86],< 1 µM,,,EC50 (Human rhinovirus 1B; [5]): 10 to 100 µM
CCOc1nc(N)nc2c1ncn2[C@@H]1O[C@]2(F)CO[P@](=O)(OC(C)C)O[C@H]2[C@@]1(C)O [Compound 88],< 10 µM,,,EC50 (Human rhinovirus 1B; [5]): 10 to 100 µM
CCOc1nc(N)nc2c1ncn2[C@@H]1O[C@]2(F)CO[P@@](=O)(OC(C)C)O[C@H]2[C@@]1(C)O [Compound 89],< 10 µM,,,EC50 (Human rhinovirus 1B; [5]): 10 to 100 µM
C[C@]1(O)[C@H](n2ccc(=O)[nH]c2=O)O[C@](F)(COP(=O)(O)OP(=O)(O)OP(=O)(O)O)[C@H]1O [Compound 110],,< 10 µM,< 1 µM,
CC(C)OC(=O)OCOP(=O)(OCOC(=O)OC(C)C)OC[C@@]1(CF)O[C@@H](n2ccc(=O)[nH]c2=O)[C@](C)(O)[C@@H]1OC(=O)C(N)C(C)C (stereo partly drawn) [Compound 160],,,,"CC50 [4]: > 100 µM; EC50 (HRV-89): 1 to 2 µM; EC50 (Human rhinovirus 1B; Rhinovirus A, 96 h): < 1 µM"

Structure (SMILES),"IC50 ([1]; Dengue virus, Huh7.5)",IC50 [2],IC50 [3],other results
CC(C)OC(=O)OCOP(=O)(OCOC(=O)OC(C)C)OC[C@@]1(F)O[C@@H](n2ccc(=O)[nH]c2=O)[C@](C)(F)[C@@H]1O [Compound 161],< 10 µM,,,EC50 (Human rhinovirus 1B; [5]): 1 to 10 µM
C[C@]1(F)[C@H](n2cnc3c(=O)[nH]c(N)nc32)O[C@](F)(COP(=O)(O)OP(=O)(O)OP(=O)(O)O)[C@H]1O [compound 19],,< 1 µM,< 10 µM,IC50 (NS5B570-Con1 (Delta-21)): < 1 µM
C[C@]1(F)[C@H](n2ccc(N)nc2=O)O[C@](F)(COP(=O)(O)OP(=O)(O)OP(=O)(O)O)[C@H]1O [compound 29],,< 1 µM,< 1 µM,
C[C@@]1(O)[C@H](O)[C@@](CF)(COP(=O)(O)OP(=O)(O)OP(=O)(O)O)O[C@H]1n1cnc2c(=O)[nH]c(N)nc21 [compound 34],,< 1 µM,< 1 µM,IC50 (NS5B570-Con1 (Delta-21)): < 1 µM
C[C@@]1(O)[C@H](O)[C@@](CF)(COP(=O)(O)OP(=O)(O)OP(=O)(O)O)O[C@H]1n1ccc(N)nc1=O [compound 91],,< 10 µM,< 100 µM,IC50 (NS5B570-Con1 (Delta-21)): < 1 µM
C[C@@]1(O)[C@H](O)[C@@](CF)(COP(=O)(O)OP(=O)(O)OP(=O)(O)O)O[C@H]1n1ccc(=O)[nH]c1=O [compound 92],,< 1 µM,< 10 µM,IC50 (NS5B570-Con1 (Delta-21)): < 1 µM
C[C@]1(O)[C@H](n2cnc3c(=O)[nH]c(N)nc32)O[C@](F)(COP(=O)(O)OP(=O)(O)OP(=O)(O)O)[C@H]1F [compound 101],,< 1 µM,< 10 µM,IC50 (NS5B570-Con1 (Delta-21)): < 1 µM
C#C[C@]1(O)[C@H](n2cnc3c(=O)[nH]c(N)nc32)O[C@](F)(COP(=O)(O)OP(=O)(O)OP(=O)(O)O)[C@H]1F [compound 103],,< 1 µM,< 1 µM,IC50 (NS5B570-Con1 (Delta-21)): < 1 µM
C#C[C@]1(O)[C@H](n2ccc(=O)[nH]c2=O)O[C@](F)(COP(=O)(O)OP(=O)(O)OP(=O)(O)O)[C@H]1O [compound 114],,< 1 µM,< 10 µM,
C#C[C@]1(O)[C@H](n2cnc3c(=O)[nH]c(N)nc32)O[C@](F)(COP(=O)(O)OP(=O)(O)OP(=O)(O)O)[C@H]1O [compound 115],,< 1 µM,< 1 µM,
C#C[C@]1(F)[C@H](n2cnc3c(=O)[nH]c(N)nc32)O[C@](F)(COP(=O)(O)OP(=O)(O)OP(=O)(O)O)[C@H]1O [compound 123],,< 1 µM,< 10 µM,
C[C@]1(O)[C@H](n2ccc(N)nc2=O)O[C@](F)(COP(=O)(O)OP(=O)(O)OP(=O)(O)O)[C@H]1O [compound 124],,< 1 µM,< 10 µM,
C[C@]1(F)[C@H](n2ccc(=O)[nH]c2=O)O[C@](F)(COP(=O)(O)OP(=O)(O)OP(=O)(O)O)[C@H]1O [compound 147],,,< 10 µM,
C[C@]1(Cl)[C@H](n2ccc(=O)[nH]c2=O)O[C@](F)(COP(=O)(O)OP(=O)(O)OP(=O)(O)O)[C@H]1O [compound 149],,,< 10 µM,IC50 (NS5B570-Con1 (Delta-21)): < 1 µM
C[C@@]1(F)[C@H](O)[C@@](CF)(COP(=O)(O)OP(=O)(O)OP(=O)(O)O)O[C@H]1n1cnc2c(=O)[nH]c(N)nc21 [compound 162],,< 1 µM,< 10 µM,IC50 (NS5B570-Con1 (Delta-21)): 1 to 10 µM
Nc1nc2c(ncn2[C@@H]2O[C@](F)(COP(=O)(O)OP(=O)(O)OP(=O)(O)O)[C@@H](O)[C@H]2F)c(=O)[nH]1 [compound 163],,,< 10 µM,
Nc1ccn([C@@H]2O[C@](CCl)(COP(=O)(O)OP(=O)(O)OP(=O)(O)O)[C@@H](O)[C@H]2O)c(=O)n1 [compound 164],,,< 100 µM,
